According to patent publication US5747462A, “Pharmaceutically active compounds and their use” (priority 1995, dated 1998):

Experiment: quantitative evaluation of intradermoplantar edema induced by lambda-carrageenan in guinea pigs (plethysmometer)
Settings: for anti-inflammatory effect with respect to the carrageenan standard (S2): p<0.000, one way variance analysis and Tukey's multiple comparisons, at the experimental doses used
Protocol: This inoculation initiates an inflammatory process defined as the standard inflammatory constant of all the preclinical trials.
The comparative evaluation is performed by measuring with a plethysmometer the change in volume in milliliters of mercury and expressing the results in absolute volume (ml) and relative percentage (°/l or %) values versus the variable of time in hours (h).
The inflammatory response is induced by inoculating carrageenan into the animal's plantar pad, and the change in volume is measured with a plethysmometer in milliliters of mercury.
The technique employed is adapted to a biological model of guinea pigs, and evaluates the intensity of the edema as the increase or decrease in the proportion of relative inflamed volume. The equation which describes this variable is: postinoculation volume minus preinoculation control volume divided by preinoculation control volume.
The method of measurement is composed of three basic steps:
Measurement of the clinical parameter inflammation volume obtained on inoculating an inflammatory noxa. This procedure constitutes the inflammatory standard (inflammatory control).
Measurement of the change in the clinical parameter inflammation volume by applying to the inflammatory standard a drug recognized as anti-inflammatory reference substance (anti-inflammatory control).
Measurement of the change in the clinical parameter inflammation volume by applying to the inflammatory standard an anti-inflammatory composition and/or subcompositions (invention).
Standard (S2): 0.1 ml of the pharmaceutically acceptable injectable formulation containing 1% of lambda-carrageenan, prepared according to standard processes in sterile water for injections and administered via the intradermoplantar route. Single dose of carrageenan between 3.6 and 3.9 mg/kg animal body weight.
Reference substance (P1): 2.0 ml of the pharmaceutically acceptable injectable formulation containing 6.25% of acetylsalicylic acid (ASA), prepared according to standard processes in sterile water for injections and administered intraperitoneally. Single dose of ASA, between 418.1 and 490.2 mg/kg animal body weight.

Structure (SMILES) | % Inflammation (0 h, ASA 418.1-490.2 mg/kg i.p. single dose) [%] | % Inflammation (1 h, ASA 418.1-490.2 mg/kg i.p. single dose) [%] | % Inflammation (2 h, ASA 418.1-490.2 mg/kg i.p. single dose) [%] | % Inflammation (3 h, ASA 418.1-490.2 mg/kg i.p. single dose) [%] | % Inflammation (4 h, ASA 418.1-490.2 mg/kg i.p. single dose) [%] | % Inflammation (5 h, ASA 418.1-490.2 mg/kg i.p. single dose) [%] | % Inflammation (6 h, ASA 418.1-490.2 mg/kg i.p. single dose) [%] | % Inflammation (7 h, ASA 418.1-490.2 mg/kg i.p. single dose) [%] | anti-inflammatory effect with respect to the carrageenan standard (S2) | % Inflammation (0 h, diclofenac sodium 94.8-105.8 mg/kg i.p. single dose) [%] | % Inflammation (1 h, diclofenac sodium 94.8-105.8 mg/kg i.p. single dose) [%] | % Inflammation (2 h, diclofenac sodium 94.8-105.8 mg/kg i.p. single dose) [%] | % Inflammation (5 h, diclofenac sodium 94.8-105.8 mg/kg i.p. single dose) [%] | % Inflammation (6 h, diclofenac sodium 94.8-105.8 mg/kg i.p. single dose) [%]
CC(=O)Oc1ccccc1C(=O)O [ASA (P1), acetylsalicylic acid] | 00.000 | 05.620 | 13.700 | 10.450 | 12.020 | 12.100 | 10.450 | 09.810 | significant anti-inflammatory effect | – | – | – | – | –
O=C(O)Cc1ccccc1Nc1c(Cl)cccc1Cl [DICLO (P2), diclofenac sodium] | – | – | – | – | – | – | – | – | significant anti-inflammatory effect | 00.000 | 12.500 | 12.600 | 11.400 | 12.300
